Reference: article PMC10017709, “Structural basis of selective cannabinoid CB2 receptor activation” (Nature Communications, 2023)
Values joined by “and” are separate entries in the source; they are usually repeats but may differ in a detail not shown here. Equal entries are not always repeated.

Tests used:
[1] = biological target: CB2R-I110^3.29L (Homo sapiens, UniProt P34972, I110L); assay: [35S]GTPγS assay, CB2R I110L mutant; assay type: biochemical; conditions: for [35S]GTPγS binding: I1103.29L, individual replicates
Chain of CB2R-I110^3.29L (P34972 whole entry I110L): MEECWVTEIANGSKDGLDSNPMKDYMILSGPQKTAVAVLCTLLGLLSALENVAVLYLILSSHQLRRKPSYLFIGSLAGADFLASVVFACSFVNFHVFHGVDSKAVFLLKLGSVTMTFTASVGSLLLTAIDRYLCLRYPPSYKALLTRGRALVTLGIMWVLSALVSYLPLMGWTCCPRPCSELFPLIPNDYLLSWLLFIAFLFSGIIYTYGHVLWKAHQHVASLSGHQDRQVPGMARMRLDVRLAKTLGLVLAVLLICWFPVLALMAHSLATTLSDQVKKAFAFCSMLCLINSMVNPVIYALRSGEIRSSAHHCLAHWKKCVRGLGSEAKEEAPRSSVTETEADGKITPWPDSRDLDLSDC

[2] = biological target: CB2R-H95^2.65A (Homo sapiens, UniProt P34972, H95A); assay: [35S]GTPγS assay, CB2R H95A mutant; assay type: biochemical
Chain of CB2R-H95^2.65A (P34972 whole entry H95A): as the sequence (P34972 whole entry I110L) above, with H95A, L110I counted along it

[3] = biological target: CB2R-E181^ECL2D (Homo sapiens, UniProt P34972, E181D); assay: [35S]GTPγS assay, CB2R E181D mutant; assay type: biochemical; conditions: E181D mutant
Chain of CB2R-E181^ECL2D (P34972 whole entry E181D): as the sequence (P34972 whole entry I110L) above, with L110I, E181D counted along it

[4] = biological target: CB2R-Quadruple^TM1,7 (Homo sapiens, UniProt P34972, C40S/K279T/K33Q/V36I); assay: [35S]GTPγS assay, CB2R quadruple mutant; assay type: biochemical; conditions: for [35S]GTPγS binding: QuadrupleTM1,7, individual replicates
Chain of CB2R-Quadruple^TM1,7 (P34972 whole entry K33Q/V36I/C40S/K279T): as the sequence (P34972 whole entry I110L) above, with K33Q, V36I, C40S, L110I, K279T counted along it

[5] = biological target: T1, hCB1R WT (Homo sapiens, UniProt P21554); assay: [3H]CP55,940 displacement assay, CB1R WT; assay type: binding; conditions: for percentage specific [3H]CP55,940 binding: CB1R - WT, 10 µM ligand, replicates 1-3; for Displacement (%) of [3H]CP55,940: CB1R WT, 10 µM compound
T1 sequence (P21554 whole entry): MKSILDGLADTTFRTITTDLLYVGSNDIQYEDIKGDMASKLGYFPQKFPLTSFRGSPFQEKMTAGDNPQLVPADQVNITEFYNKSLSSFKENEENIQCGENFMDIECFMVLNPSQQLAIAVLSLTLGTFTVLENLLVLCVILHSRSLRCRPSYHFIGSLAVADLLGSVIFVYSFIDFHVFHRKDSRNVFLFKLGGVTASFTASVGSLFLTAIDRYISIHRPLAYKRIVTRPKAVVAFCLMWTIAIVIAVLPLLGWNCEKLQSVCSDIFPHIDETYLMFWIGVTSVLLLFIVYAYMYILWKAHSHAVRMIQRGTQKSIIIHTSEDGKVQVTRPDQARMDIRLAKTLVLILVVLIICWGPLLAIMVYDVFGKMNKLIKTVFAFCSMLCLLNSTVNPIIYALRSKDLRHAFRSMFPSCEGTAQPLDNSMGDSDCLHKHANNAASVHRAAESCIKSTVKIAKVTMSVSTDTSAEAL

[6] = biological target: T2, CB1R D266ECL2E (Homo sapiens, UniProt P21554, D266E); assay: [3H]CP55,940 displacement assay, CB1R D266E mutant; assay type: binding; conditions: for Displacement (%) of [3H]CP55,940: CB1R D266E, 10 µM compound; for percentage specific [3H]CP55,940 binding: CB1R D266ECL2E, 10 µM ligand, replicates 1-3
T2 construct: The WT CB1R and CB2R genes were subcloned into vector pcDNA3.1; HA signal peptide (N); expressed in transfected cells; host or cells: HEK293T (transient, membrane homogenates)
T2 sequence (P21554 whole entry D266E): as the sequence (P21554 whole entry) above, with D266E counted along it

[7] = biological target: T3, CB1R QuadrupleTM1,7 (Homo sapiens, UniProt P21554, I119V/Q116K/S123C/T377K); assay: [3H]CP55,940 displacement assay, CB1R quadruple mutant; assay type: binding; conditions: for Displacement (%) of [3H]CP55,940: CB1R Quadruple TM1,7, 10 µM compound; for percentage specific [3H]CP55,940 binding: CB1R QuadrupleTM1,7, 10 µM ligand, replicates 1-3
T3 construct: The WT CB1R and CB2R genes were subcloned into vector pcDNA3.1; HA signal peptide (N); expressed in transfected cells; host or cells: HEK293T (transient, membrane homogenates)
T3 sequence (P21554 whole entry Q116K/I119V/S123C/T377K): as the sequence (P21554 whole entry) above, with Q116K, I119V, S123C, T377K counted along it

[8] = biological target: T1, hCB1R WT; assay: [35S]GTPγS G protein activation assay, CB1R WT; assay type: biochemical; conditions: CB1R WT; for Agonist-mediated activation: 10 µM agonist
[9] = system: CB1R QuadrupleTM1,7; assay: [35S]GTPγS assay, CB1R quadruple mutant; assay type: biochemical, human; conditions: for Agonist-mediated activation: CB1R Quadruple TM1,7, 10 µM agonist
[10] = system: cisplatin-induced nephropathy, CB2R knockout mice (CB2R−/−); assay: Cisplatin-induced nephropathy in CB2R knockout mice; assay type: in vivo
Method: Ten to twelve-week-old male/female C57BL/6J mice were obtained from The Jackson Laboratory (Bar Harbor, ME, USA). CB2R knockout mice (CB2R^−/−) and their wild-type littermates (CB2R^+/+) were developed as described previously and had been backcrossed to a C57BL/6J background. All animals were kept in a temperature-controlled environment (20–22 °C) with a 12 h light–dark cycle and were always allowed free access to food and water. All animal experiments reported in this manuscript complied with the National Institutes of Health “Guide for the Care and Use of Laboratory Animals” (NIH publication 86–23 revised 1985) and were approved by the Institutional Animal Care and Use Committee of the National Institute on Alcohol Abuse and Alcoholism (Bethesda, MD).
(§1) The well-established model of cisplatin-induced nephropathy was used[63]. Mice (CB2R^−/− and CB2R^+/+) were sacrificed 72 h after a single injection of cisplatin (cis-diamine platinum (II) dichloride (Sigma#P4394) 25 mg/kg i.p.; freshly dissolved in physiological saline) by cervical dislocation under deep anesthesia with 5% isoflurane, for collection of blood and tissue samples. LEI-102 was given i.p. or by oral gavage (p.o.) at 0.3, 3.0, and 10 mg/kg every day, starting 1.5 h before the cisplatin exposure. The drug was dissolved in a vehicle of DMSO:Tween 80:saline, 1:1:18. After administration of LEI‐102, mice were killed by cervical dislocation under deep anesthesia with 5% isoflurane, for collection of blood and tissue samples at the time described in the figure. The tetrad assay in mice has previously been described in detail.
Markers of kidney dysfunction (BUN and CREA), histopathology (PAS staining), immunostaining or ELISA for 3-nitrotyrosine (3-NT; Cell Biolabs #STA-305) and 4-hydroxynonenal (4-HNE; Cell Biolabs#STA-838), and real-time PCR (Primers from Qiagen, SYBER Green Vita Scientific#MEIF01301, High-Capacity cDNA Reverse Transcription Kit, Thermo Fisher Scientific#4368813) for inflammatory cytokines were performed as previously described. Tubular damage scores were determined based on the percentage of tubules showing epithelial necrosis where 0= normal; 1, <10%; 2, 10–25%; 3, 26–75%; 4, >75%. Tubular necrosis was defined as the loss of the proximal tubular brush border, blebbing of apical membranes, tubular epithelial cell detachment from the basement membrane, or intraluminal aggregation of cells and proteins. The morphometric examination was performed in a blinded manner. Ten fields were scored from each mouse kidneys at 200× magnification, and average scores were determined for each mouse. For final quantification graph, average tubular damage scores of six mice/group were plotted.

[11] = system: CB1R activity; assay: Mouse tetrad assay for CB1R activity; conditions: in vivo, po, 25 mg/kg
Method: To determine whether LEI-102 maintained its selectivity for CB2R over CB1R in vivo, LEI-102 was tested in the mouse tetrad assay for CB1R activity. In this assay, four consecutive behavioral tests, related to anti-nociception, hypothermia, catalepsy, and spontaneous activity, were performed 120 min after administration of the agonist. […] There were no effects on nociceptive behavior assessed in tail withdrawal test nor on body temperature (Fig. 6 upper row). No effect was found on locomotor behavior (Fig. 6 lower row) in case of distance traveled, time spent mobile, or running speed of mice.
as §1

[12] = H95A mutant, <5 when curve fit not finished
[13] = Cisplatin + LEI-102 10 mg/kg, KO, mean, n = 6

Displacement (%) of [3H]CP55,940 [5] [%]	Displacement (%) of [3H]CP55,940 [6] [%]	Displacement (%) of [3H]CP55,940 [7] [%]	Agonist-mediated activation [8] [fold over its basal]	Compound	[35S]GTPγS binding ([1]; log [ligand] (M) -5)	[35S]GTPγS binding ([1]; log [ligand] (M) -6)	[35S]GTPγS binding ([1]; log [ligand] (M) -7)	[35S]GTPγS binding ([1]; log [ligand] (M) -8)	[35S]GTPγS binding ([1]; log [ligand] (M) -9)	[35S]GTPγS binding ([1]; log [ligand] (M) -10)	[35S]GTPγS binding ([4]; log [ligand] (M) -5)	[35S]GTPγS binding ([4]; log [ligand] (M) -6)	[35S]GTPγS binding ([4]; log [ligand] (M) -7)	[35S]GTPγS binding ([4]; log [ligand] (M) -8)	[35S]GTPγS binding ([4]; log [ligand] (M) -9)	percentage specific [3H]CP55,940 binding [5]	percentage specific [3H]CP55,940 binding [6]	percentage specific [3H]CP55,940 binding [7]	Agonist-mediated activation [9] [fold over its basal]	further results
17 ± 7	38 ± 10	26 ± 10	1.0 ± 0.1	CC(C)CN1C(=O)CN(Cc2ccc(-c3ccc(F)c(CNC4CCOCC4)n3)cc2)C1=O [LEI-102, 1-(4-(5-fluoro-6-(((tetrahydro-2H-pyran-4-yl)amino)methyl)pyridin-2-yl)benzyl)-3-isobutylimidazolidine-2,4-dione]	91.04 percentage of WT and 85.60 percentage of WT and 97.60 percentage of WT	71.11 percentage of WT and 90.00 percentage of WT and 68.00 percentage of WT	49.89 percentage of WT and 105.60 percentage of WT and 64.50 percentage of WT	38.52 percentage of WT and 44.70 percentage of WT and 17.20 percentage of WT	9.93 percentage of WT and -16.00 percentage of WT and -7.20 percentage of WT	-2.60 percentage of WT and -2.20 percentage of WT and -32.20 percentage of WT	19.02 percentage of WT and 26.25 percentage of WT and 35.32 percentage of WT	18.24 percentage of WT and 27.33 percentage of WT and 15.57 percentage of WT	-20.33 percentage of WT and 5.34 percentage of WT	-17.90 percentage of WT and -15.60 percentage of WT and -7.82 percentage of WT	-5.85 percentage of WT and 6.13 percentage of WT and -3.78 percentage of WT	72.08 percentage and 95.14 percentage and 82.84 percentage	65.03 percentage and 44.89 percentage and 77.53 percentage	70.97 percentage and 58.02 percentage and 92.08 percentage	1.2 ± 0.1	EC50 ([1]; I110L mutant, HEK293T membranes): 15.8 nM; Emax (%) ([1]; I110L mutant, at 10 µM compared to WT): 91 ± 3%; EC50 [2, 12]: > 10000 nM; pEC50 [2, 12]: significantly reduced; Emax (%) ([2]; H95A mutant, at 10 µM compared to WT): 64 ± 7%; EC50 ([3]; <5 when curve fit not finished): 126 nM; Emax (%) ([3]; at 10 µM compared to WT): 28 ± 13%; EC50 ([4]; Quadruple TM1,7 mutant, <5 when curve fit not finished): 631 nM; Emax (%) ([4]; Quadruple TM1,7 mutant, at 10 µM compared to WT): 27 ± 5%; binding to CB1R ([5]; [3H]CP55,940 displacement): did not bind; selectivity (CB2R over CB1R) ([5]; binding, CB2R vs CB1R): at least 1000 fold; G protein activation, fold over its basal ([8]; individual replicates): 0.954 fold over its basal and 1.145 fold over its basal and 0.987 fold over its basal; G protein activation, fold over its basal ([9]; CB1R QuadrupleTM1,7, individual replicates): 1.167 fold over its basal and 1.343 fold over its basal and 1.151 fold over its basal; protective effects against cisplatin-induced renal dysfunction, tubular damage, histopathological injury and oxidative-nitrative stress ([10]; CB2R knockout mice): abolished; BUN [10, 13]: 312; CREA [10, 13]: 3.9; Tubular damage score [10, 13]: 2.88; catalepsy [11]: Nor was catalepsy observed; effects in the tetrad assay as compared with vehicle [11]: did not produce any effects; Tail withdrawal (%MPE) ([11]; 120 min): 30.0 %MPE
-19 ± 17	12 ± 7	0 ± 25	1.0 ± 0.0	CC(C)(C)[C@@H](CO)NC(=O)c1nn(-c2c[n+]([O-])ccn2)c2c1C[C@@H]1C[C@H]21 [APD371]	88.75 percentage of WT and 114.10 percentage of WT and 98.70 percentage of WT	65.58 percentage of WT and 82.80 percentage of WT and 68.20 percentage of WT	37.92 percentage of WT and 48.30 percentage of WT and 43.20 percentage of WT	16.04 percentage of WT and -5.10 percentage of WT and 25.10 percentage of WT	37.59 percentage of WT and -1.70 percentage of WT and -8.60 percentage of WT	-2.00 percentage of WT and -5.20 percentage of WT	35.07 percentage of WT and 47.26 percentage of WT and 22.67 percentage of WT	15.07 percentage of WT and 38.79 percentage of WT and 23.35 percentage of WT	-3.98 percentage of WT and 20.94 percentage of WT and 22.86 percentage of WT	22.19 percentage of WT and 25.68 percentage of WT and 22.32 percentage of WT	-7.96 percentage of WT and -0.64 percentage of WT and 0.99 percentage of WT	104.41 percentage and 153.95 percentage and 99.24 percentage	74.46 percentage and 89.45 percentage and 99.44 percentage	125.90 percentage and 49.87 percentage and 125.34 percentage	1.1 ± 0.0	Emax ([1]; I110L mutant, at 10 µM compared to WT, read-out: Emax (%)): 101 ± 7%; drop in potency compared to WT ([2]; H95A mutant vs WT, [35S]GTPγS): 158 fold; Emax ([2]; H95A mutant, at 10 µM compared to WT, read-out: Emax (%)): 50 ± 1%; Emax ([3]; at 10 µM compared to WT, read-out: Emax (%)): 39 ± 6%; Emax ([4]; Quadruple TM1,7 mutant, at 10 µM compared to WT, read-out: Emax (%)): 35 ± 7%; [35S]GTPγS binding ([4]; log [ligand] (M) -10): -4.29 percentage of WT and 0.80 percentage of WT and 9.16 percentage of WT
